Consider three compounds from patent US9155329B2, “Flavour compositions” (Givaudan Nederland Services B.V., priority 2005, dated 2015).

Each structure is given as a SMILES string. Read-outs that look alike come from different tables or passages of the source.

The conditions of assay [1]: sample B: ice cream (8% vegetable fat) + strawberry flavour + 7 ppm substance, versus A without substance. On the procedure: […] ice cream (8% vegetable fat) samples were prepared: • A: Ice cream (see table 2)+strawberry flavour • B: Ice cream (see table 2)+strawberry flavour+7 ppm N-gluconyl 1-amino-2-methyl-2-propanol (as prepared in Example 5)
The ice creams were tasted by a professional panel.

How the values of assay [2] were obtained: Four yoghurt samples were prepared: • A: Yoghurt 0% fat+strawberry flavour+sucralose (25%) 300 ppm • B: Yoghurt 0% fat+strawberry flavour+sucralose (25%) 300 ppm+10 ppm N-gluconyl 2-amino-2-methyl-propanol (as prepared in Example 8) • C: Yoghurt 0% fat+strawberry flavour+4% sugar • D: Yoghurt 0% fat+strawberry flavour+4% sugar+10 ppm N-gluconyl 2-amino-2-methyl-propanol (as prepared in Example 8)
The yoghurts were tasted by a professional panel.

The conditions of assay [3]: standard chicken soup dosed to 5 ppm substance, versus reference soup. On the procedure:
A standard chicken soup was prepared. The quantity was split in two. One part was kept as reference and the other part was dosed to contain 5 ppm of N-gluconyl 2-amino-2-methyl-propanol (as prepared in Example 8). The soups were tasted by a professional panel.

Assay [4] can be described thus: Aqueous NaCl solution tasting by a sensory panel. Particulars: solution B: 0.5% NaCl and 12 ppm substance; solution A (0.5% NaCl alone) described as salty. On the procedure: Two aqueous solutions were prepared: • A. 0.5% NaCl • B. 0.5% NaCl and 12 ppm of N-lactoyl 2-amino-2-methyl-propanol (as prepared in Example 4)
A short description of assay [5]: Carbonated orange flavoured soft drink evaluation. The note with it: compared to original drink. On the procedure: Two different soft drinks A and B were prepared by adding respectively 40 ppb and 4 ppm of N-lactoyl 2-amino-2-methyl-propanol (as prepared in Example 4) to a commercially available carbonated orange flavoured soft drink.

For `CC(C)(O)CNC(=O)[C@H](O)[C@@H](O)[C@H](O)[C@H](O)CO` [N-gluconyl 1-amino-2-methyl-2-propanol], the taste description entry in assay [1] was “more round and natural taste, very clear sweet enhancement and increased creaminess”.
`CC(C)(CO)NC(=O)[C@H](O)[C@@H](O)[C@H](O)[C@H](O)CO` [N-gluconyl 2-amino-2-methyl-propanol, N-gluconyl 2-amino-2-methylpropanol]: the taste description result in assay [2] (sample B: yoghurt 0% fat + strawberry flavour + sucralose (25%) 300 ppm + 10 ppm substance, compared to A without substance) is “fuller more round and natural taste, more sugar sweetness, significantly less bitter metallic aftertaste compared to A”; in assay [2] (sample D: yoghurt 0% fat + strawberry flavour + 4% sugar + 10 ppm substance, compared to C without substance) it was “fuller more round and natural taste, more intense sweet compared to C”; in assay [3], “more tasteful, more complete, more body, more fatty”.
Turning to `CC(O)C(=O)NC(C)(C)CO` (stereo not shown) [N-lactoyl 2-amino-2-methyl-propanol, N-lactoyl 2-amino-2-methylpropanol], the taste description result in assay [4] was ““high impact”, “bouillon”, “meaty”, “salty”, “umami” and “salivating””; in assay [5] (sample A: 40 ppb substance in commercial carbonated orange flavoured soft drink), “more natural, with a more juicy character than the original”; in assay [5] (sample B: 4 ppm substance in commercial carbonated orange flavoured soft drink) it was “tingling character typical of the flavour modulating substances of the present invention, which was judged as very pleasant and particularly well suited for the orange flavour”.
